This passage reports MIC, IC50 and inhibition results from ChEMBL document CHEMBL4038262, “Design, synthesis and antibacterial activities of thiouracil derivatives containing acyl thiourea as SecA inhibitors” (Bioorg Med Chem Lett, 2017).

Experiment [1] has as its system Bacillus amyloliquefaciens. The experiment can be described thus: Antibacterial activity against Bacillus amyloliquefaciens after 24 hrs by plate colony counting method. It counts as functional.
For experiment [2], the system named is Staphylococcus aureus. The experiment can be described thus: Antibacterial activity against Staphylococcus aureus after 24 hrs by plate colony counting method. It counts as functional.
A short description of experiment [3]: Inhibition of Escherichia coli BL21.19 SecA after 30 mins by malachite green dye-based assay.
The test system of experiment [4] is Bacillus subtilis. As to the kind of experiment: Antibacterial activity against Bacillus subtilis after 24 hrs by plate colony counting method. It counts as functional.
Experiment [5] concerns Bacillus amyloliquefaciens. The experiment can be described thus: Antibacterial activity against Bacillus amyloliquefaciens at 25 ug/ml after 24 hrs by plate colony counting method relative to control. It counts as functional.
Experiment [6] relates to Bacillus subtilis. The experiment can be described thus: Antibacterial activity against Bacillus subtilis at 25 ug/ml after 24 hrs by plate colony counting method relative to control. The format is functional.
In experiment [7] the test system is Staphylococcus aureus. As to the kind of experiment: Antibacterial activity against Staphylococcus aureus at 25 ug/ml after 24 hrs by plate colony counting method relative to control. It counts as functional.
Experiment [8] has as its system Escherichia coli. As to the kind of experiment: Inhibition of Escherichia coli BL21.19 SecA at 40 ug/ml after 30 mins by malachite green dye-based assay relative to control.
Experiment [9] has as its system Escherichia coli. As to the kind of experiment: Inhibition of Escherichia coli BL21.19 SecA at 20 ug/ml after 30 mins by malachite green dye-based assay relative to control.

Structures are written as SMILES. Converted amounts (≈) assume the structure as drawn.

For the compound `N#Cc1c(-c2ccc(-c3ccccc3)cc2)nc(SCc2ccc(CSc3nc(-c4ccc(-c5ccccc5)cc4)c(C#N)c(=O)[nH]3)cc2)[nH]c1=O`, the results for the MIC in experiment [1], in experiment [2] and in [4] were 12.5 µg/mL (≈ 17.5 µM), 25 µg/mL (≈ 35.1 µM) and 50 µg/mL (≈ 70.1 µM), respectively. In addition, in experiment [3], the IC50 (usually the midpoint of a concentration-inhibition curve) was 20.8 µg/mL (≈ 29.2 µM). The inhibition (in general, the relative decrease from the control value, in per cent) at 25 µg/mL stood at 87% in experiment [5], 44% in [6] and 79% in experiment [7].

Regarding `Cc1ccccc1NC(=S)NC(=O)c1ccc(CSc2nc(-c3ccc(Cl)cc3Cl)c(C#N)c(=O)[nH]2)cc1`, the results for the inhibition at 25 µg/mL in [5], in experiment [6] and in experiment [7] were 55%, 54% and 66%, respectively.

`Cc1ccccc1NC(=S)NC(=O)c1ccc(CSc2nc(-c3ccccc3)c(C#N)c(=O)[nH]2)cc1`: the inhibition at 25 µg/mL was 69% in experiment [5], 78% in experiment [6] and 63% in [7].

Take `Cc1ccccc1NC(=S)NC(=O)c1ccc(CSc2nc(-c3c(Cl)cccc3Cl)c(C#N)c(=O)[nH]2)cc1`: the inhibition at 25 µg/mL in experiment [5] was 50%; in experiment [6], 62%; in [7], 64%.

Regarding `N#Cc1c(-c2ccc(Cl)cc2Cl)nc(SCc2ccc(C(=O)NC(=S)Nc3ccc(Cl)cc3)cc2)[nH]c1=O`, the inhibition at 25 µg/mL in experiment [5] is 74%; in [6], 74%; in experiment [7] it was 69%.

Take `N#Cc1c(-c2ccccc2)nc(SCc2ccc(C(=O)NC(=S)Nc3c(Cl)cccc3Cl)cc2)[nH]c1=O`: the values for the inhibition at 25 µg/mL in [5], in experiment [6] and in experiment [7] were 81%, 84% and 70%, respectively.

Regarding `Cc1ccccc1NC(=S)NC(=O)c1ccc(CSc2nc(-c3ccc(Cl)cc3)c(C#N)c(=O)[nH]2)cc1`, the inhibition at 25 µg/mL in [5] amounted to 61%; in experiment [6] it was 78%; in experiment [7] it was 58%.

Take `N#Cc1c(-c2ccc(Cl)cc2)nc(SCc2ccc(C(=O)NC(=S)Nc3ccc(Cl)cc3)cc2)[nH]c1=O`: the results for the inhibition at 25 µg/mL in experiment [5], in [6] and in [7] were 61%, 91% and 62%, respectively.

As to `N#Cc1c(-c2ccc(Cl)cc2Cl)nc(SCc2ccc(C(=O)NC(=S)Nc3ccccc3)cc2)[nH]c1=O`, the inhibition at 25 µg/mL in [5] worked out at 56%; in experiment [6] it was 66%; in experiment [7] it was 79%.

Take `N#Cc1c(-c2c(Cl)cccc2Cl)nc(SCc2ccc(C(=O)NC(=S)Nc3ccc(Cl)cc3)cc2)[nH]c1=O`: the inhibition at 25 µg/mL stood at 49% in [5], 63% in experiment [6] and 68% in experiment [7].

`N#Cc1c(-c2ccccc2)nc(SCc2ccc(C(=O)NC(=S)Nc3ccccc3)cc2)[nH]c1=O`: the figures for the inhibition at 25 µg/mL in experiment [5], in [6] and in experiment [7] were 70%, 63% and 67%, respectively.

`N#Cc1c(-c2ccccc2)nc(SCc2ccc(C(=O)NC(=S)Nc3ccc(Cl)cc3)cc2)[nH]c1=O` gave a half-inhibitory concentration (IC50) in [3] of 39.4 µg/mL (≈ 74.1 µM). In addition, the inhibition in experiment [8] was found to be 50%. In addition, the inhibition at 25 µg/mL in experiment [5] amounted to 79%; in [6], 71%; in [7], 64%.

As to `N#Cc1c(-c2ccccc2Cl)nc(SCc2ccc(C(=O)NC(=S)Nc3c(Cl)cccc3Cl)cc2)[nH]c1=O`, the minimum inhibitory concentration (MIC) – broadly, the least concentration at which growth counts as inhibited – is 25 µg/mL (≈ 41.6 µM) in experiment [1], 50 µg/mL (≈ 83.2 µM) in experiment [2] and 50 µg/mL (≈ 83.2 µM) in experiment [4]. In addition, the inhibition in experiment [9] is 50%. Also, the IC50 in experiment [3] came to 16 µg/mL (≈ 26.6 µM). Further, the inhibition at 25 µg/mL in experiment [5] was determined as 89%; in [6] it was 92%; in [7], 79%.

With `Cc1ccccc1NC(=S)NC(=O)c1ccc(CSc2nc(-c3ccc(-c4ccccc4)cc3)c(C#N)c(=O)[nH]2)cc1`, the figures for the inhibition at 25 µg/mL in experiment [5], in experiment [6] and in experiment [7] were 73%, 78% and 67%, respectively.

On to `N#Cc1c(-c2ccc(Cl)cc2)nc(SCc2ccc(C(=O)NC(=S)Nc3c(Cl)cccc3Cl)cc2)[nH]c1=O`, for which the MIC in experiment [1] was 25 µg/mL (≈ 41.6 µM); in experiment [2] it was 50 µg/mL (≈ 83.2 µM); in [4] it was 50 µg/mL (≈ 83.2 µM). In addition, the IC50 in experiment [3] was found to be 38.8 µg/mL (≈ 64.6 µM). The inhibition in experiment [8] is 50%. Further, the inhibition at 25 µg/mL in [5] came to 81%; in experiment [6] it was 80%; in experiment [7], 81%.

Turning to `N#Cc1c(-c2ccc(Cl)cc2Cl)nc(SCc2ccc(C(=O)NC(=S)Nc3c(Cl)cccc3Cl)cc2)[nH]c1=O`, the MIC in [1], in experiment [2] and in experiment [4] was 50 µg/mL (≈ 78.7 µM) each time. Moreover, the inhibition at 25 µg/mL in experiment [5] was found to be 72%; in experiment [6] it was 69%; in [7], 68%.

For `N#Cc1c(-c2ccc(Cl)cc2)nc(SCc2ccc(C(=O)NC(=S)Nc3ccccc3)cc2)[nH]c1=O`, the inhibition at 25 µg/mL in experiment [5] was determined as 70%; in [6], 63%; in experiment [7], 67%.

`N#Cc1c(-c2ccc(-c3ccccc3)cc2)nc(SCc2ccc(C(=O)NC(=S)Nc3ccccc3)cc2)[nH]c1=O`: the MIC in experiment [1], in experiment [2] and in experiment [4] was 50 µg/mL (≈ 87.2 µM) each time. For the same compound, the inhibition at 25 µg/mL in experiment [5] amounted to 62%; in [6], 72%; in [7] it was 83%.

Take `N#Cc1c(-c2ccccc2Cl)nc(SCc2ccc(C(=O)NC(=S)Nc3ccc(Cl)cc3)cc2)[nH]c1=O`: the inhibition at 25 µg/mL in experiment [5] stood at 63%; in [6], 68%; in [7], 68%.

For the compound `CCn1cc(C(=O)O)c(=O)c2cc(F)c(N3CCNCC3)cc21` [NORFLOXACIN], the minimal inhibitory concentration (MIC) in [1], in experiment [2] and in experiment [4] was 25 µg/mL (≈ 78.3 µM) each time. The inhibition at 25 µg/mL was 84% in [5], 89% in experiment [6] and 78% in experiment [7].

Turning to `Cc1ccccc1NC(=S)NC(=O)c1ccc(CSc2nc(-c3ccccc3Cl)c(C#N)c(=O)[nH]2)cc1`, the inhibition at 25 µg/mL in experiment [5] came to 78%; in [6], 82%; in experiment [7], 71%.

For the compound `N#Cc1c(-c2ccc(-c3ccccc3)cc2)nc(SCc2ccc(C(=O)NC(=S)Nc3c(Cl)cccc3Cl)cc2)[nH]c1=O`, the minimal inhibitory concentration (MIC) in experiment [1], in experiment [2] and in [4] was 50 µg/mL (≈ 77.8 µM) each time. The results for the inhibition at 25 µg/mL in experiment [5], in experiment [6] and in experiment [7] were 71%, 69% and 80%, respectively.

With `N#Cc1c(-c2c(Cl)cccc2Cl)nc(SCc2ccc(C(=O)NC(=S)Nc3ccccc3)cc2)[nH]c1=O`, the inhibition at 25 µg/mL in experiment [5] was found to be 71%; in experiment [6] it was 55%; in [7], 71%.

With `N#Cc1c(-c2ccccc2Cl)nc(SCc2ccc(C(=O)NC(=S)Nc3ccccc3)cc2)[nH]c1=O`, the results for the MIC in experiment [1], in experiment [2] and in [4] were 25 µg/mL (≈ 47 µM), 50 µg/mL (≈ 94 µM) and 25 µg/mL (≈ 47 µM), respectively. Moreover, the inhibition in experiment [9] amounted to 50%. The compound further came in with an IC50 in experiment [3] of 17.9 µg/mL (≈ 33.6 µM). For the same compound, the inhibition at 25 µg/mL in [5] stood at 67%; in [6] it was 87%; in experiment [7] it was 80%.

On to `N#Cc1c(-c2c(Cl)cccc2Cl)nc(SCc2ccc(C(=O)NC(=S)Nc3c(Cl)cccc3Cl)cc2)[nH]c1=O`, for which the MIC in experiment [1], in experiment [2] and in experiment [4] was 50 µg/mL (≈ 78.7 µM) each time. Besides, the inhibition at 25 µg/mL was found to be 53% in experiment [5], 73% in [6] and 79% in experiment [7].

Consider `N#Cc1c(-c2ccc(-c3ccccc3)cc2)nc(SCc2ccc(C(=O)NC(=S)Nc3ccc(Cl)cc3)cc2)[nH]c1=O`, for which the results for the inhibition at 25 µg/mL in experiment [5], in [6] and in [7] were 75%, 56% and 76%, respectively.
